# Laboratory results published in patent publication US20100285156A1, “COMPOSITION FOR PREVENTING AND TREATING METABOLIC DISEASES COMPRISING THE EXTRACT OF LYSIMACHIAE FOENUM-GRAECI HERBA” (BRNSCIENCE CO., LTD, priority 2007, published 2010).
# Assays:
# [1] = tested on: DIO (Diet Induced-Obesity) mice; assay: Blood metabolic disease marker levels in diet-induced obesity (DIO) mice; format: in vivo, C57BL/6 male mice
# Method: Seven-week-old C57BL/6 male mice (obtained from Coretec Inc.) were bred in an animal facility where breeding conditions of temperature (20±1° C.), humidity (50±10%), light/dark cycle (12 hours), light intensity (150 to 300 Lux), and ventilation (10 to 20 times/hr) were maintained. Solid feed (obtained from Folas International Inc.) was freely supplied to the mice, and city water was subjected to steam sterilization and then was freely fed to the mice as drinking water. After acclimation for one week, 60% Kcal solid feed (obtained from Research Diet Inc.) was supplied to the mice, and the Lysimachiae Foenum-Graeci Herba extract was orally administered to the mice for 42 days in an amount of 30, 100, and 300 mg/kg/day. Sibutramine was administered to a positive control group in an amount of 10 mg/kg/day, and 0.5% MC (methyl cellulose) was administered to a negative control group in the same amount. The mice to which the substances were administered for six weeks were fasted for one day, and then were killed using CO2 gas. Blood gathered from the mouse abdominal vena cava was put into EDTA tubes and stored in ice, and then plasma obtained by centrifugation at 3000 rpm for 10 minutes was analyzed using a biochemical auto analyzer (AU400, Olympus, Japan). Also, organs extracted from the mice were immediately frozen by putting them into liquid nitrogen, were stored in a low-temperature refrigerator (−70° C.), and were histologically analyzed.
# The contents of triglycerides and cholesterol in the extracted liver tissues were also measured, the results of which are given in FIG. 2.
# [2] = tested on: ICR male mice given corn oil; assay: Antihyperlipidemic activity, corn oil loaded mice; format: in vivo; conditions: plasma, 10 mg/kg, control drug, corn oil 1 g/kg
# Method: Five-week-old ICR male mice (obtained from Central Lab. Animal Inc.) were bred in an animal facility where breeding conditions of temperature (20±1° C.), humidity (50±10%), light/dark cycle (12 hours), light intensity (150 to 300 Lux), and ventilation (10 to 20 times/hr) were maintained. Solid feed for laboratory animals (obtained from Cargill Agri Purina Inc.) was freely supplied to the mice, and city water was subjected to steam sterilization and then was freely fed to the mice as drinking water. After acclimation for one week, the […] Herba extract was orally administered to eight mice per group in a concentration of 100 mg/kg, and a saline was orally administered to the control group instead of the extract.
# [3] = plasma, high-fat diet, 10 mg/kg/day, six weeks
# [4] = positive control group, summary of Table 1
SMILES,"ALT (Alanine aminotransferase) [1, 3]","AST (Aspartate aminotransferase) [1, 3]","CHO (Cholesterol) [1, 3]","GLU (Glucose) [1, 3]","TG (Triglyceride) [1, 3]","ALT and glucose levels [1, 4]","AST and cholesterol levels [1, 4]","triglyceride level [1, 4]",CHO (Cholesterol) [2],TG (Triglyceride) [2]
CC(C)CC(N(C)C)C1(c2ccc(Cl)cc2)CCC1 (stereo not shown) [Sibutramine],64 ± 15.1 IU/L,172.33 ± 58.4 IU/L,187.33 ± 15 mg/dL,182.66 ± 27.3 mg/dL,91.33 ± 17.0 mg/dL,meaningfully reduced,not changed,rather increased,–,–
CCCCCCCCCCC[C@@H](C[C@@H]1OC(=O)[C@H]1CCCCCC)OC(=O)[C@H](CC(C)C)NC=O [Xenical],–,–,–,–,–,–,–,–,148.83 ± 8.26 mg/dL,311.17 ± 45.56 mg/dL
